# Reference: patent US6552196B2, “Quinolone carboxylic acid derivatives” (Dong Wha Pharmaceutical Industrial Co., Ltd., priority 1997, dated 2003)
# Columns and labels:
# Type in all cases: cell-based
# Enterobacter clocae P99 = assay: In vitro antibacterial activity (MIC), agar dilution; settings: 2-fold agar dilution, Muller-Hinton agar, 18 hours at 37° C., read-out: minimum inhibitory concentration (MIC)
# Protocol: (§1) 10^7 cfu/ml of bacteria were inoculated and cultured for 18 hours at 37° C. and then the antibacterial activities were measured. For the methicillin resistant strains the activities were measured after 48 hours of cultivation at 30° C. Hoechst Standard strains were used for the testings.
# [1] = system: Staphylococcus aureus 503; assay: as above; settings: 2-fold agar dilution, Muller-Hinton agar, 18 hours at 37° C., read-out: minimum inhibitory concentration (MIC)
# Protocol: as §1
# Klebsiella oxytoca 1082E = assay: as above; settings: 2-fold agar dilution, Muller-Hinton agar, 18 hours at 37° C., read-out: minimum inhibitory concentration (MIC)
# Protocol: as §1
# [2] = system: Pseudomonas aeruginosa 1771; assay: as above; settings: 2-fold agar dilution, Muller-Hinton agar, 18 hours at 37° C., read-out: minimum inhibitory concentration (MIC)
# Protocol: as §1
# [3] = system: Pseudomonas aeruginosa 1771M; assay: as above; settings: Pseudomonas aeruginosa, 1771M, 18 h, read-out: minimum inhibitory concentration (MIC)
# Protocol: as §1
# [4] = system: Enterobacter clocae 1321E; assay: as above; settings: 2-fold agar dilution, Muller-Hinton agar, 18 hours at 37° C., read-out: minimum inhibitory concentration (MIC)
# Protocol: as §1
# [5] = system: Streptococcus faecium MD 8b; assay: as above; settings: Enterococcus faecium, MD8B, 2-fold agar dilution, Muller-Hinton agar, 18 hours at 37° C., read-out: minimum inhibitory concentration (MIC)
# Protocol: as §1
# [6] = system: Streptococcus pyogens 308A; assay: as above; settings: 2-fold agar dilution, Muller-Hinton agar, 18 hours at 37° C., read-out: minimum inhibitory concentration (MIC)
# Protocol: as §1
# Esherichia coli TEM = assay: as above; settings: 2-fold agar dilution, Muller-Hinton agar, 18 hours at 37° C., read-out: minimum inhibitory concentration (MIC)
# Protocol: as §1
# [7] = system: Pseudomonas aeruginosa 1592E; assay: as above; settings: 2-fold agar dilution, Muller-Hinton agar, 18 hours at 37° C., read-out: minimum inhibitory concentration (MIC)
# Protocol: as §1
# [8] = system: Streptococcus pyogens 77A; assay: as above; settings: 2-fold agar dilution, Muller-Hinton agar, 18 hours at 37° C., read-out: minimum inhibitory concentration (MIC)
# Protocol: as §1
# [9] = system: Klebsiella aerogenes 1522E; assay: as above; settings: 2-fold agar dilution, Muller-Hinton agar, 18 hours at 37° C., read-out: minimum inhibitory concentration (MIC)
# Protocol: as §1
# Esherichia coli DC0 = assay: as above; settings: 2-fold agar dilution, Muller-Hinton agar, 18 hours at 37° C., read-out: minimum inhibitory concentration (MIC)
# Protocol: as §1
# Esherichia coli 078 = assay: as above; settings: 2-fold agar dilution, Muller-Hinton agar, 18 hours at 37° C., read-out: minimum inhibitory concentration (MIC)
# Protocol: as §1
# Salmonella typhimurium = assay: as above; settings: Salmonella enterica, 2-fold agar dilution, Muller-Hinton agar, 18 hours at 37° C., read-out: minimum inhibitory concentration (MIC)
# Protocol: as §1
# [10] = system: Staphylococcus aureus 285; assay: as above; settings: 2-fold agar dilution, Muller-Hinton agar, 18 hours at 37° C., read-out: minimum inhibitory concentration (MIC)
# Protocol: as §1
# Esherichia coli 1507E = assay: as above; settings: 2-fold agar dilution, Muller-Hinton agar, 18 hours at 37° C., read-out: minimum inhibitory concentration (MIC)
# Protocol: as §1
# [11] = system: Staphylococcus aureus SG511; assay: as above; settings: 2-fold agar dilution, Muller-Hinton agar, 18 hours at 37° C., read-out: minimum inhibitory concentration (MIC)
# Protocol: as §1
# [12] = system: Pseudomonas aeruginosa 9027; assay: as above; settings: 2-fold agar dilution, Muller-Hinton agar, 18 hours at 37° C., read-out: minimum inhibitory concentration (MIC)
# Protocol: as §1
# [13] = system: Staphylococcus aureus 701E; assay: In vitro antibacterial activity against resistant strains (MIC); settings: resistant strain Staphylococcus aureus 701E; 2-fold agar dilution; methicillin resistant strains 48 hours at 30° C.; read-out: minimum inhibitory concentration (MIC)
# Protocol: as §1
# [14] = system: Staphylococcus aureus 690E; assay: as above; settings: resistant strain Staphylococcus aureus 690E; 2-fold agar dilution; methicillin resistant strains 48 hours at 30° C.; read-out: minimum inhibitory concentration (MIC)
# Protocol: as §1
# [15] = system: Staphylococcus aureus 8236; assay: as above; settings: resistant strain Staphylococcus aureus 8236; 2-fold agar dilution; methicillin resistant strains 48 hours at 30° C.; read-out: minimum inhibitory concentration (MIC)
# Protocol: as §1
# [16] = system: Staphylococcus aureus 695E; assay: as above; settings: resistant strain Staphylococcus aureus 695E; 2-fold agar dilution; methicillin resistant strains 48 hours at 30° C.; read-out: minimum inhibitory concentration (MIC)
# Protocol: as §1
# [17] = system: Staphylococcus aureus 697E; assay: as above; settings: resistant strain Staphylococcus aureus 697E; 2-fold agar dilution; methicillin resistant strains 48 hours at 30° C.; read-out: minimum inhibitory concentration (MIC)
# Protocol: as §1
# [18] = system: Staphylococcus aureus 692E; assay: as above; settings: resistant strain Staphylococcus aureus 692E; 2-fold agar dilution; methicillin resistant strains 48 hours at 30° C.; read-out: minimum inhibitory concentration (MIC)
# Protocol: as §1
# [19] = system: Staphylococcus aureus 241; assay: as above; settings: resistant strain Staphylococcus aureus 241; 2-fold agar dilution; methicillin resistant strains 48 hours at 30° C.; read-out: minimum inhibitory concentration (MIC)
# Protocol: as §1
# [20] = system: Staphylococcus epidermidis 178; assay: as above; settings: resistant strain Staphylococcus epidermidis 178; 2-fold agar dilution; methicillin resistant strains 48 hours at 30° C.; read-out: minimum inhibitory concentration (MIC)
# Protocol: as §1
# [21] = system: Staphylococcus aureus 88E; assay: as above; settings: resistant strain Staphylococcus aureus 88E; 2-fold agar dilution; methicillin resistant strains 48 hours at 30° C.; read-out: minimum inhibitory concentration (MIC)
# Protocol: as §1
# [22] = system: Staphylococcus aureus 303; assay: as above; settings: resistant strain Staphylococcus aureus 303; 2-fold agar dilution; methicillin resistant strains 48 hours at 30° C.; read-out: minimum inhibitory concentration (MIC)
# Protocol: as §1
# [23] = system: Staphylococcus aureus 693E; assay: as above; settings: resistant strain Staphylococcus aureus 693E; 2-fold agar dilution; methicillin resistant strains 48 hours at 30° C.; read-out: minimum inhibitory concentration (MIC)
# Protocol: as §1
# [24] = system: Staphylococcus aureus 121E; assay: as above; settings: resistant strain Staphylococcus aureus 121E; 2-fold agar dilution; methicillin resistant strains 48 hours at 30° C.; read-out: minimum inhibitory concentration (MIC)
# Protocol: as §1
# [25] = system: Staphylococcus aureus 703E; assay: as above; settings: resistant strain Staphylococcus aureus 703E; 2-fold agar dilution; methicillin resistant strains 48 hours at 30° C.; read-out: minimum inhibitory concentration (MIC)
# Protocol: as §1
# [26] = system: Staphylococcus aureus 694E; assay: as above; settings: resistant strain Staphylococcus aureus 694E; 2-fold agar dilution; methicillin resistant strains 48 hours at 30° C.; read-out: minimum inhibitory concentration (MIC)
# Protocol: as §1
# [27] = system: Staphylococcus epidermidis 291; assay: as above; settings: resistant strain Staphylococcus epidermidis 291; 2-fold agar dilution; methicillin resistant strains 48 hours at 30° C.; read-out: minimum inhibitory concentration (MIC)
# Protocol: as §1
# [28] = system: Staphylococcus aureus 179; assay: as above; settings: resistant strain Staphylococcus aureus 179; 2-fold agar dilution; methicillin resistant strains 48 hours at 30° C.; read-out: minimum inhibitory concentration (MIC)
# Protocol: as §1
# [29] = system: Staphylococcus aureus 208E; assay: as above; settings: resistant strain Staphylococcus aureus 208E; 2-fold agar dilution; methicillin resistant strains 48 hours at 30° C.; read-out: minimum inhibitory concentration (MIC)
# Protocol: as §1
# [30] = system: Staphylococcus aureus 293; assay: as above; settings: resistant strain Staphylococcus aureus 293; 2-fold agar dilution; methicillin resistant strains 48 hours at 30° C.; read-out: minimum inhibitory concentration (MIC)
# Protocol: as §1
# [31] = system: Staphylococcus aureus 256E; assay: as above; settings: resistant strain Staphylococcus aureus 256E; 2-fold agar dilution; methicillin resistant strains 48 hours at 30° C.; read-out: minimum inhibitory concentration (MIC)
# Protocol: as §1
SMILES,MIC (Enterobacter clocae P99),MIC [1],MIC (Klebsiella oxytoca 1082E),MIC [2],MIC [3],MIC [4],MIC [5],MIC [6],MIC (Esherichia coli TEM),MIC [7],MIC [8],MIC [9],MIC (Esherichia coli DC0),MIC (Esherichia coli 078),MIC (Salmonella typhimurium),MIC [10],MIC (Esherichia coli 1507E),MIC [11],MIC [12],MIC [13],also measured
"CON=C1CN(c2nc3c(cc2F)c(=O)c(C(=O)O)cn3C2CC2)CC12CNC2.CS(=O)(=O)O [Example 1, 1-Cyclopropyl-6-fluoro-7-[8-(methoxyimino)-2,6-diazaspiro[3,4]oct-6-yl]-4-oxo-1,4-dihydro[1,8]naphthyridine-3-carboxylic acid methanesulfonate]",0.025 µg/mL,0.025 µg/mL,0.004 µg/mL,0.391 µg/mL,0.391 µg/mL,0.013 µg/mL,0.049 µg/mL,0.098 µg/mL,0.025 µg/mL,0.391 µg/mL,0.007 µg/mL,0.049 µg/mL,0.195 µg/mL,0.013 µg/mL,0.013 µg/mL,0.025 µg/mL,0.025 µg/mL,0.007 µg/mL,0.781 µg/mL,0.049 µg/mL,MIC [14]: 0.025 µg/mL; MIC [15]: 0.781 µg/mL; MIC [16]: 0.049 µg/mL; MIC [17]: 0.013 µg/mL; MIC [18]: 0.025 µg/mL; MIC [19]: 0.781 µg/mL; MIC [20]: 1.56 µg/mL; MIC [21]: 0.049 µg/mL; MIC [22]: 0.781 µg/mL; MIC [23]: 0.049 µg/mL; MIC [24]: 0.049 µg/mL; MIC [25]: 0.049 µg/mL; MIC [26]: 0.049 µg/mL; MIC [27]: 1.56 µg/mL; MIC [28]: 0.781 µg/mL; MIC [29]: 0.049 µg/mL; MIC [30]: 0.781 µg/mL; MIC [31]: 0.025 µg/mL
"CCON=C1CN(c2c(F)c(N)c3c(=O)c(C(=O)O)cn(C4CC4)c3c2F)CC12CNC2.CS(=O)(=O)O [Example 9, 1-Cyclopropyl-5-amino-6,8-difluoro-7-[8-(ethoxyimino)-2,6-diazaspiro[3,4]oct-6-yl]-4-oxo-1,4-dihydro-3-quinolinecarboxylic acid methanesulfonate]",0.007 µg/mL,< 0.002 µg/mL,< 0.002 µg/mL,0.781 µg/mL,0.391 µg/mL,0.007 µg/mL,0.049 µg/mL,0.025 µg/mL,0.013 µg/mL,0.781 µg/mL,0.004 µg/mL,0.049 µg/mL,0.195 µg/mL,0.004 µg/mL,0.007 µg/mL,0.007 µg/mL,0.013 µg/mL,< 0.002 µg/mL,0.781 µg/mL,0.013 µg/mL,MIC [14]: 0.007 µg/mL; MIC [15]: 0.098 µg/mL; MIC [16]: 0.013 µg/mL; MIC [17]: 0.004 µg/mL; MIC [18]: 0.007 µg/mL; MIC [19]: 0.098 µg/mL; MIC [20]: 0.391 µg/mL; MIC [21]: 0.007 µg/mL; MIC [22]: 0.098 µg/mL; MIC [23]: 0.013 µg/mL; MIC [24]: 0.013 µg/mL; MIC [25]: 0.013 µg/mL; MIC [26]: 0.013 µg/mL; MIC [27]: 0.391 µg/mL; MIC [28]: 0.098 µg/mL; MIC [29]: 0.013 µg/mL; MIC [30]: 0.098 µg/mL; MIC [31]: 0.013 µg/mL
"CON=C1CN(c2c(F)c(N)c3c(=O)c(C(=O)O)cn(C4CC4)c3c2F)CC12CN(C)C2 [Example 11, 1-Cyclopropyl-5-amino-6,8-difluoro-7-[8-(methoxyimino)-2-methyl-2,6-diazaspiro[3,4]oct-6-yl]-4-oxo-1,4-dihydro-3-quinolinecarboxylic acid]",0.013 µg/mL,0.004 µg/mL,< 0.002 µg/mL,0.781 µg/mL,0.391 µg/mL,0.004 µg/mL,0.049 µg/mL,0.013 µg/mL,0.013 µg/mL,0.781 µg/mL,0.004 µg/mL,0.049 µg/mL,0.098 µg/mL,< 0.002 µg/mL,0.007 µg/mL,0.007 µg/mL,0.013 µg/mL,< 0.002 µg/mL,0.781 µg/mL,0.013 µg/mL,MIC [14]: 0.007 µg/mL; MIC [15]: 0.195 µg/mL; MIC [16]: 0.013 µg/mL; MIC [17]: 0.004 µg/mL; MIC [18]: 0.007 µg/mL; MIC [19]: 0.195 µg/mL; MIC [20]: 0.781 µg/mL; MIC [21]: 0.007 µg/mL; MIC [22]: 0.195 µg/mL; MIC [23]: 0.013 µg/mL; MIC [24]: 0.013 µg/mL; MIC [25]: 0.013 µg/mL; MIC [26]: 0.013 µg/mL; MIC [27]: 0.781 µg/mL; MIC [28]: 0.195 µg/mL; MIC [29]: 0.013 µg/mL; MIC [30]: 0.195 µg/mL; MIC [31]: 0.007 µg/mL
